In US20240391937A1, “BICYCLIC DERIVATIVE PARP INHIBITOR AND USE THEREOF” (XIZANG HAISCO PHARMACEUTICAL CO., LTD., priority 2021, published 2024):
Where two headings read alike, the source gives them in different places.

Tests used:
[1] = Pharmacokinetic test in rats; assay type: in vivo, SD rats
Description: • 1.1 Experimental animals: male SD rats, about 220 g, 6-8 weeks old, 6 rats/compound, purchased from Chengdu Ddossy Experimental Animals Co., Ltd. • 1.2 Experimental design: on the day of the test, 6 SD rats were randomly grouped according to their body weight; the animals were fasted with water available for 12 to 14 h one day before the administration, and were fed 4 h after the administration.
Before and after the administration, 0.15 ml of blood was taken from the orbit of the animals under isoflurane anesthesia and placed in an EDTAK2 centrifuge tube. The blood was centrifuged at 5000 rpm and 4° C. for 10 min to collect plasma. The blood collection time points for the intravenous administration group and intragastric administration group were: 0, 5 min, 15 min, 30 min, 1 h, 2 h, 4 h, 6 h, 8 h, and 24 h. Before analysis and detection, all samples were stored at −80° C., and a quantitative analysis of samples was performed using LC-MS/MS.

[2] = biological target: T1, PARP-1 enzyme (Homo sapiens, UniProt P09874); experiment: PARP-1 enzyme activity test (BPS Bioscience chemiluminescence kit); assay type: biochemical
T1 construct: purchased BPS Bioscience
Description: PARP-1 chemical […] detection kit was purchased from BPS Bioscience. The histone solution in the kit was diluted 5× with 1×PBS, and 25 μL of the diluted histone solution was added to a microwell plate and incubated overnight at 4° C. After the incubation, the plate was washed three times with PBST (0.05% Tween-20). 100 μL of the blocking solution was added to the microwell plate and incubated at 25° C. for 90 minutes. After the incubation, the plate was washed three times with PBST. 2.5 μL of compounds at different concentrations diluted in test buffer and 12.5 μL of substrate mixed solution (1.25 μL 10× PARP test buffer; 1.25 μL 10× PARP test mixed solution; 2.5 μL Activated DNA, 7.5 μL double-distilled water) were added to the microwell plate. The PARP-1 enzyme was diluted to 2 ng/μL, 10 μL of the diluent was added to the microwell plate, and the reaction system was incubated at 25° C. for 60 minutes.
After the incubation, the plate was washed three times with PBST. Streptavidin-HRP was diluted 50× with a blocking solution, and 25 μL of the diluent was added to the microwell plate and incubated at 25° C. for 30 minutes. After the incubation, the plate was washed three times with PBST. ELISA ECL substrate A and substrate B were mixed at a ratio of 1:1 (v/v), 50 μL of the mixture was added to the microwell plate, and the chemiluminescence value was read.
The inhibition rate was calculated according to formula 1, where RLUsample was the readout of the compound well, RLUmax was the readout of the solvent control well, and RLUmin was the readout of the control well without the PARP-1 enzyme. Curve fitting was performed by four parameters (log (inhibitor) vs. response—Variable slope) using GraphPad Prism software, and the IC50 value was calculated.

[3] = test system: MDA-MB-436 cells; experiment: MDA-MB-436 cell activity test (CellTiter-Glo, 7 days); assay type: cell-based; conditions: Homo sapiens; for IC50: MDA-MB-436, 168 h, 7 days incubation; for inhibition at 10 µM: MDA-MB-436 cells, read-out: Max inh. % 10 μM
Description: Breast tumor cells MDA-MB-436 were purchased from ATCC, the culture medium was Leibovitz's L-15+10% FBS, and the cells were cultured in a CO2-free incubator at 37° C. On day 1, the cells in the exponential growth phase were collected, and the cell suspension was adjusted to 4000 cells/135 μL with the culture medium. 135 μL of the cell suspension was added to each well of a 96-well cell culture plate and incubated overnight. On day 2, compounds at different concentrations were added, and the plate was placed in the incubator and incubated for 7 days. After the incubation was completed, according to operation instructions for a CellTiter-Glo kit (Promega, G7573), 75 μL of CTG solution, which was already pre-melted and equilibrated to room temperature, was added to each well, and the mixture was uniformly mixed for 2 min using a microplate shaker. The plate was placed at room temperature for 10 min, and then […] were measured using an Envision2104 plate reader (PerkinElmer). The inhibition rate was calculated using formula (1), where RLUcompound was the readout of the drug treated group, RLUcontrol was the average value of the vehicle control group, and RLUblank was the average value of the cell-free well. The IC50 value was calculated using GraphPad Prism software.

[4] = Pharmacokinetic test in mice; assay type: in vivo, ICR mice
Description: • 3.1 Experimental animals: male ICR mice, 20-25 g, 18 mice/compound. purchased from Chengdu Ddossy Experimental Animals Co., Ltd. • 3.2 Experimental design: on the day of the test, 18 ICR mice were randomly grouped according to their body weights. the animals were fasted with water available for 12 to 14 h one day before the administration, and were fed 4 h after the administration. [table] Before and after the administration, 0.06 mL of blood was taken from the orbit of the animals under isoflurane anesthesia and placed in an EDTAK2 centrifuge tube. The blood was centrifuged at 5000 rpm and 4° C. for 10 min to collect plasma. The blood collection time points for the intravenous group and intragastric administration group were: 0 min, 5 min, 15 min, 30 min, 1 h, 2 h, 4 h, 6 h, 8 h, and 24 h. Before analysis and detection, all samples were stored at −80° C., and a quantitative analysis of samples was performed using LC-MS/MS.

[5] = male, SD, rat, iv, rats, i.v. 2.5 mg/kg, plasma
[6] = grades, read-out: PARP-1 enzyme activity IC50
[7] = values in text, read-out: IC50 values on PARP-1
[8] = male, ICR, mouse, iv, mice, i.v. 2.5 mg/kg, plasma

T1 sequence (P09874 whole entry): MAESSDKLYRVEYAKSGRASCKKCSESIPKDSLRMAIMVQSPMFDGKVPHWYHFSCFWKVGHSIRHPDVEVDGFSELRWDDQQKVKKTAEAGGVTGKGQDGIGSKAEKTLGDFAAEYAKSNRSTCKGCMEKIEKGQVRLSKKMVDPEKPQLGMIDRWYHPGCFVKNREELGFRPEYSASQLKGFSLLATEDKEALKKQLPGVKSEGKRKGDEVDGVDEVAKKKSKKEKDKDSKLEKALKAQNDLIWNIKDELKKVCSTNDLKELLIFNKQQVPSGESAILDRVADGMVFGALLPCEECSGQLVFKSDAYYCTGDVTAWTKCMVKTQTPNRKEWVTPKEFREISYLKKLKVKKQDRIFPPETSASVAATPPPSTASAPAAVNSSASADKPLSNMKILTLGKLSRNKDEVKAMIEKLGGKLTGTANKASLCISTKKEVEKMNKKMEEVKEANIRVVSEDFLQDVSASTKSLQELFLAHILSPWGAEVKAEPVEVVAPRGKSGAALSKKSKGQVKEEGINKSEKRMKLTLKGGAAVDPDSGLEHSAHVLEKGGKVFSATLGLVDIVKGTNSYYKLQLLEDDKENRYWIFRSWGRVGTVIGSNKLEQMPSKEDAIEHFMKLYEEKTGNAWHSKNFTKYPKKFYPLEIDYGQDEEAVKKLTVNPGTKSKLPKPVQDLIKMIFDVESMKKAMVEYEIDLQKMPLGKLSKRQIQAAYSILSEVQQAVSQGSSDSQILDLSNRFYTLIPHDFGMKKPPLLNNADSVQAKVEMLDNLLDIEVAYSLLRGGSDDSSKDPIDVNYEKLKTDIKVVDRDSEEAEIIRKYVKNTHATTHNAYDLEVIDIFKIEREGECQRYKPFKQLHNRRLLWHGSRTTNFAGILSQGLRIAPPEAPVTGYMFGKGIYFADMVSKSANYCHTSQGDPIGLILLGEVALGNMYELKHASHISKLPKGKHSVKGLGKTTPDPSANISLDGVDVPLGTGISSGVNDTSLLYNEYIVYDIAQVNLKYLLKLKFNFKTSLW

SMILES | pharmacokinetic characteristics in rats ([1]; conclusion in words) | AUC(0-t) [1, 5] [µg·h/mL] | clearance [1, 5] [mL/min/kg] | Vd ([1]; male, SD, rat, iv, rats, i.v. 2.5 mg/kg, plasma, read-out: Vdss) [L/kg] | AUC(0-t) ([1]; male, SD, rat, po, rats, i.g. 10 mg/kg, plasma) [µg·h/mL] | F ([1]; rats, i.g. 10 mg/kg) [%] | IC50 [2, 6] [nM] | IC50 [2, 7] [nM] | IC50 [3] [nM] | inhibition at 10 µM [3] [%] | pharmacokinetic characteristics in mice ([4]; conclusion in words) | AUC(0-t) [4, 8] [µg·h/mL] | clearance [4, 8] [mL/min/kg] | Vd ([4]; male, ICR, mouse, iv, mice, i.v. 2.5 mg/kg, plasma, read-out: Vdss) [L/kg] | AUC(0-t) ([4]; male, ICR, mouse, po, mice, i.g. 10 mg/kg, plasma) [µg·h/mL] | F ([4]; mice, i.g. 10 mg/kg) [%]
CNC(=O)c1ccc(N2CCN(Cc3cnc4cc(C5CC5)c(=O)[nH]c4c3)CC2)cn1 [Compound 2, 5-(4-((7-cyclopropyl-6-oxo-5,6-dihydro-1,5-naphthyridin-3-yl)methyl)piperazin-1-yl)-N-methylpicolinamide] | good pharmacokinetic characteristics | 70.8 | 0.585 | 0.169 | 206 | 72.6 | ≤ 1 | 0.9 | 5.1 | 86.3 | – | – | – | – | – | –
O=C(NC1CC1)c1ccc(C2=CCN(Cc3cnc4cc(C5CC5)c(=O)[nH]c4c3)CC2)cn1 [Compound 3, N-cyclopropyl-1′-((7-cyclopropyl-6-oxo-5,6-dihydro-1,5-naphthyridin-3-yl)methyl)-1′,2′,3′,6′-tetrahydro-[3,4′-bipyridine]-6-carboxamide] | – | – | – | – | – | – | ≤ 1 | 0.6 | 4.5 | 82.1 | good pharmacokinetic characteristics | 108 | 0.346 | 0.207 | 707 | 164
O=C(NC1CC1)c1ccc(N2CCN(Cc3cnc4cc(C5CC5)c(=O)[nH]c4c3)CC2)cn1 [Compound 5, N-cyclopropyl-5-(4-((7-cyclopropyl-6-oxo-5,6-dihydro-1,5-naphthyridin-3-yl)methyl)piperazin-1-yl)picolinamide] | – | – | – | – | – | – | ≤ 1 | 0.74 | 5.6 | 80.7 | – | – | – | – | – | –
Cn1cc(NC(=O)c2ccc(N3CCN(Cc4cnc5cc(C6CC6)c(=O)[nH]c5c4)CC3)cn2)cn1 [Compound 6, 5-(4-((7-cyclopropyl-6-oxo-5,6-dihydro-1,5-naphthyridin-3-yl)methyl)piperazin-1-yl)-N-(1-methyl-1H-pyrazol-4-yl)picolinamide] | – | – | – | – | – | – | ≤ 1 | 0.54 | 2.8 | 85.4 | – | – | – | – | – | –
O=c1[nH]c2cc(CN3CCN(c4cn5cc(C(F)(F)F)nc5cn4)CC3)cnc2cc1C1CC1 [Compound 8, 3-cyclopropyl-7-((4-(2-(trifluoromethyl)imidazo[1,2-a]pyrazin-6-yl)piperazin-1-yl)methyl)-1,5-naphthyridin-2(1H)-one] | – | – | – | – | – | – | – | 1.2 | 1.1 | 97.4 | – | – | – | – | – | –
